# Experimental data as given in patent publication US20050020576A1, “Kappa agonist compounds and pharmaceutical formulations thereof” (priority 1996, published 2005).
# Structures can show the parent of a compound that is named as a salt.
row,SMILES,melting point
1,"CN(C(=O)Cc1ccc(C(F)(F)F)cc1NS(C)(=O)=O)[C@H](CN1CC[C@H](O)C1)c1ccccc1 (as salt: HCl) [Example 126, 2-(2-N-Methylsulfonamido-2-amino-4-trifluoromethylphenyl)-N-methyl-N-[(1S)-1-phenyl-2-[1-(3S)-(3-hydroxypyrrolidinyl)ethyl]]acetamide]",178 to 181 °C
2,CN(C(=O)Cc1ccc(N)cc1)[C@H](CN1CCCC1)c1cccc([N+](=O)[O-])c1 (as salt: HCl),200 °C (dec.)
3,CN(C(=O)Cc1ccccc1[N+](=O)[O-])[C@H](CN1CCCC1)c1cccc([N+](=O)[O-])c1 (as salt: HCl),258 to 259 °C
4,"CC(=O)N1CCN(C(=O)Cc2ccc(S(C)(=O)=O)cc2)C(CN2CCCC2)C1 (racemic) (as salt: hydrochloride) [(R,S-10a)]",145 to 147 °C
5,CN(C(=O)Cc1cc(Cl)c(Cl)cc1[N+](=O)[O-])[C@H](CN1CCCC1)c1cccc([N+](=O)[O-])c1 (as salt: HCl),165 °C (dec.)
6,COc1cc2c(cc1S(=O)(=O)N(C)Cc1ccccc1)[C@@H](N(C)C(=O)Cc1ccc(Cl)c(Cl)c1)[C@H](N1CCCC1)CC2 (racemic) (as salt: HCl),150 °C (dec.)
7,CNS(=O)(=O)c1ccccc1CC(=O)N(C)C(CN1CCCC1)c1ccccc1F (racemic) (as salt: salt) [Example 147],232 to 234 °C
8,"CN(C(=O)Cc1ccc(Cl)c(Cl)c1)[C@H](CN1CCCC1)c1cccc(NS(N)(=O)=O)c1 (racemic) (as salt: hydrochloride) [Example 3c, 2-(3,4-Dichlorophenyl)-N-methyl-N-[(1R,S)-1-(3-sulfamidophenyl)-2-(1-pyrrolidinyl)ethyl]acetamide hydrochloride]",198 to 200 °C
9,"COC(=O)N1CCN(C(=O)Cc2ccccc2[N+](=O)[O-])C(CN2CCCC2)C1 (racemic) (as salt: hydrochloride) [(R,S-9d), (R,S)-Methyl 4-[(2-nitrophenyl)acetyl]-3-[(1-Pyrrolidinyl)-methyl]-1-piperazine-carboxylate hydrochloride]",228 °C
10,"CCOC(=O)/C=C/C(=O)Nc1cc(Cl)c(Cl)cc1CC(=O)N(C)[C@H](CN1CCCC1)c1ccccc1 (as salt: hydrochloride) [Example 3y, (E) Ethyl 4-[2-(2-amino-4,5-dichlorophenyl)-N-methyl-N-[(1S)-1-phenyl)-2-[1-pyrrolidinyl]ethyl]acetamido]4-oxo-2-butenoate hydrochloride]",165 to 167 °C (dec.)
11,"COc1cccc(C(CN2CCCC2)N(C)C(=O)Cc2ccccc2NS(C)(=O)=O)c1 (racemic) (as salt: sulfonic acid salt) [Example 3uu, (R,S)-1-[2-(Methanesulfonylamino)phenyl-N-methylacetamido]-1-(3-methoxyphenyl)-2-(1-pyrrolidino)-ethane, methanesulfonic acid salt]",135 °C (dec.)
12,CN(C(=O)Cc1ccccc1NCC(=O)O)C1CCCCC1N1CCCC1 (stereo not shown) (as salt: HCl),212 to 214 °C (dec.)
13,"COc1ccc(CC(=O)N(C)[C@H](CN2CC[C@H](O)C2)c2ccccc2)cc1NS(C)(=O)=O (as salt: HCl) [Example 127, 2-(3-N-Methylsulfonamido-3-amino-4-methoxyphenyl)-N-methyl-N-[(1S)-1-phenyl-2-[1-(3S)-(3-hydroxypyrrolidinyl)ethyl]]acetamide]",148 to 151 °C
14,"CN(C(=O)Cc1cc2c(cc1S(=O)(=O)N(C)C)OCO2)[C@H](CN1CCCC1)c1ccccc1 (as salt: HCl) [Example 132, 2-[2-(N-Dimethylsulfamoyl)-4,5-methylenedioxyphenyl]-N-methyl-N-[(1S)-1-phenyl-2-[(1-pyrrolidinyl)ethyl]]acetamide]",269 to 271 °C
15,"O=C(Cc1ccc(Cl)c(Cl)c1)N1CCN(C(=O)C(F)(F)F)C[C@H]1CN1CCCC1 (as salt: hydrochloride) [(R-3h), (R)-4-Trifluoroacetyl-1-(3,4-dichlorophenyl)acetyl]-2-[(1-pyrrolidinyl)methyl]-piperazine hydrochloride]",145 to 147 °C
16,"CCOP(=O)(Nc1cccc([C@@H](CN2CCCC2)N(C)C(=O)Cc2ccc(Cl)c(Cl)c2)c1)OCC (as salt: hydrochloride) [Example 3g, 2-(3,4-Dichlorophenyl)-N-methyl-N-[(1S)-1-[3-(diethyl Phosphoryl)amino]phenyl)-2-(1-pyrrolidinyl)ethyl]acetamide hydrochloride]",140 to 142 °C
17,CN(C(=O)Cc1ccc(C(F)(F)F)cc1NCC(=O)O)C1CCCCC1N1CCCC1 (stereo not shown) (as salt: HCl),178 to 180 °C (dec.)

row,SMILES,melting point
1,CN(C(=O)C(c1ccccc1)c1ccccc1)[C@@H]1c2ccccc2C[C@H]1N1CCCC1 (racemic) (as salt: HCl),> 300 °C
2,"CN(C(=O)Cc1ccc(OCc2ccccc2)c(NS(C)(=O)=O)c1)[C@H](CN1CCCC1)c1ccccc1 (as salt: HCl) [Example 123, 2-(3-N-Methylsulfonamido-3-amino-4-benzyloxyphenyl)-N-methyl-N-[(1S)-1-phenyl-2-(1-pyrrolidinyl)ethyl]acetamide]",219 to 221 °C
3,COc1cc(CC(=O)N(C)[C@H](CN2CC[C@H](O)C2)c2ccccc2)c(S(=O)(=O)N2CCN(C)CC2)cc1OC (as salt: HCl) [Example 139],168 to 171 °C
4,"CN(C(=O)C(c1ccccc1)c1ccccc1)C1CCCCC1N1CCCC1 (racemic) (as salt: HCl) [Example 5s, (±)-trans-N-Methyl-N-[2-(1-pyrrolidinyl)cyclohexyl]2,2-dphenylacetamide Hydrochloride]",295 to 297 °C (dec.)
5,"CS(=O)(=O)O[C@H]1CCN(CC2CN(S(C)(=O)=O)CCN2C(=O)Cc2ccc(Cl)c(Cl)c2)C1 (stereo partly drawn) (as salt: hydrochloride) [Example 1jj, 4-Methanesulfonyl-1-[(3,4-dichlorophenyl)acetyl]-2-(R,S)-[3-(S)-methanesulfonate-1-(pyrrolidinyl)methyl]piperazine hydrochloride]",130 to 132 °C
6,"Cc1ccc(S(=O)(=O)N2CCN(C(=O)Cc3ccc(Cl)c(Cl)c3)[C@H](CN3CCCC3)C2)cc1 (as salt: hydrochloride) [(R-3l), (R)-4-(4-Methyphenylsulfonyl)-1-[(3,4-dichlorophenyl)acetyl]-2-[(1-Pyrrolidinyl)methyl]-piperazine hydrochloride]",240 °C (dec.)
7,"COc1cc(CC(=O)N(C)[C@H](CN2CCCC2)c2ccccc2)c(S(=O)(=O)N(C)Cc2ccccc2)cc1OC (as salt: HCl) [Example 148, 2-[2-(N-Benzyl-N-methylsulfamoyl)-4,5-dimethoxyphenyl]-N-methyl-N-[(1S)-1-phenyl-2-[(1-pyrrolidinyl)ethyl]]acetamide]",188 to 189 °C
8,"CC(C)C(=O)Nc1cccc([C@@H](CN2CCCC2)N(C)C(=O)Cc2ccccc2NC(=O)C(C)C)c1 (as salt: sulfonic acid salt) [Example 3qq, 2-(2-Iso-butyramidophenyl)-N-methyl-N-[(1S)-1-(3-isobutyramido-phenyl)-2-(1-pyrrolidinyl)ethyl]acetamide Methanesulfonic acid salt]",143 to 145 °C
9,"O=C(Cc1ccc(C(F)(F)F)cc1)N1CCN(C(=O)C(F)(F)F)CC1CN1CCCC1 (racemic) (as salt: hydrochloride) [Example 1h, 4-Trifluoroacetyl-1-[(-4-trifluoromethylphenyl)acetyl]-2-(R,S)-(1-pyrrolidinyl)methyl]piperazine hydrochloride]",140 to 145 °C
10,"CN(C(=O)Cc1ccc(C(F)(F)F)cc1NCC(=O)O)[C@H](CN1CCCC1)c1ccccc1 (as salt: hydrochloride) [Example 3b, N-[(4-Trifluoromethylphenyl)-N-methyl-N-{[1S]-1-phenyl-2-[1-pyrrolidinyl)]ethyl}acetamido]glycine hydrochloride]",228 to 230 °C (dec.)
11,"COc1cc(CC(=O)N(C)[C@H](CN2CC[C@H](O)C2)c2ccccc2)c(S(=O)(=O)N2CCCC2)cc1OC (as salt: salt) [Example 135, 2-[2-(N-Pyrrolidinesulfamoyl)-4,5-dimethoxyphenyl]-N-methyl-N-[(1S)-1-phenyl-2-[1-(3S)-(3-hydroxypyrrolidinyl)ethyl]]acetamide]",> 120 °C (dec.)
12,CCCCOC(=O)Nc1ccc(CC(=O)N(C)[C@H](CN2CCCC2)c2cccc([N+](=O)[O-])c2)cc1 (as salt: HCl),170 °C (dec.)
13,"CN(C(=O)Cc1ccccc1NS(C)(=O)=O)[C@H](CN1CC[C@H](O)C1)c1ccccc1 (as salt: HCl) [Example 125, 2-(2-N-Methylsulfonamido-2-aminophenyl)-N-methyl-N-[(1S)-1-phenyl-2-[1-(3S)-(3-hydroxypyrrolidinyl)ethyl]]acetamide]",168 to 171 °C
14,"COc1cc(CC(=O)N(C)[C@H](CN2CCCC2)c2ccccc2)c(S(=O)(=O)N(C)C)cc1OC (as salt: HCl) [Example 136, 2-[2-(N-Dimethylsulfamoyl)-4,5-dimethoxyphenyl]-N-methyl-N-[(1S)-1-phenyl-2-[(1-pyrrolidinyl)ethyl]]acetamide]",246 to 248 °C
15,CNS(=O)(=O)c1cccc(CC(=O)N(C)[C@@H]2CCCC[C@H]2N2CCCC2)c1OC.Cl (racemic),168 to 170 °C
16,"COc1cc(CC(=O)N(C)[C@H](CN2CCCC2)c2ccccc2)c(S(=O)(=O)N2CCOCC2)cc1OC (as salt: HCl) [Example 140, 2-[2-N-(Morpholinesulfamoyl)-4,5-dimethoxyphenyl]-N-methyl-N-[(1S)-1-phenyl-2-[1-(pyrrolidinyl)ethyl]]acetamide]",229 to 231 °C
17,"COc1cc(CC(=O)N(C)[C@H](CN2CCCC2)c2ccccc2)c(S(=O)(=O)N(C)Cc2ccccc2)cc1OC (as salt: hydrochloride) [Example 3xx, 2-(2-N-Benzyl-2-N-methylsulfamoyl-3,4-dimethoxyphenyl)-N-methyl-N-[(1S)-1-phenyl-2-(1-pyrrolidinyl)ethyl]acetamide hydrochloride]",188 to 190 °C
